Counter-ions that a name gives are not always drawn.
Experiments:
[1] = acute toxicity (LD50) in mice after oral administration; type: in vivo, mouse (male NMRI); settings: mouse, in vivo; male NMRI-mice, oral, 50% mortality on the 7th day; read-out: LD50 per os
Procedure: (§1) The acute toxicity of the compounds is determined in male NMRI-mice (body weight range 18-22 g) after oral (p.o) administration. The LD50 is defined as that dose in μmol/kg which causes a 50% mortality rate of the test animals on the 7th day after application. The calculation of the LD50 is carried out by probitanalysis (see L. Cavalli-Sforza, Grundbegriffe der Biometric, Gustav Fischer Verlag Stuttgart (1964).

isolated left atria = test: prolongation of the functional refractory period (FRP), double stimulus method of Govier; set-up: species or system guinea pig (female albino-pirbright-white); settings: Cavia porcellus, 0.3 h; isolated left atria of female guinea pigs, 18 minutes after application; read-out: FRP 125% (concentration causing prolongation of the functional refractory period to 125%)
[2] = tested on: aconitin-induced arrhythmic effects; test: aconitin-induced arrhythmia test (Aconitine test), oral; type: in vivo, rat (male Wistar); settings: for minimal effective dose: Rattus norvegicus, po, 3 h, read-out: Aconitine test, effective dose per os
Procedure: The influence of the novel compound on aconitin-induced arrhythmic effects is determined on male Wistar rats (weighing 280-350 g) which are treated with an aconitin infusion according to the method of Raschak (M. Raschak, Arzneim. Forschung (Drug Research) 25 (1975) pp. 639-641). The effective dose which is given in μmol/kg, is the dose which cause a significant difference in time between the starting of the aconitin-induced arrhythmic effect in animals treated with the active ingredient and the starting of this aconitin-induced effect in an untreated control group of animals. In order to be considered effective the dose must cause a significant prolongation of the period until the aconitin-induced arrhythmic effects start, and it must be effective against at least two of the aconitin-induced arrhythmic symptoms (extrasystoles, ventricular flutter, ventricular tachycardia). The test compound is applied orally inform of a 2% suspension of tylose ^R MH 50 three hours before the aconitin-infusion is started.
As a standard dose one tenth of the LD50 in mice is used. If a test compound is effective at this dose, the dose is reduced in a following test. The statistical t-test method according to Student using logarithmic values of the effective values is used for significance testing (see Lothar Sachs, Statistische Auswertungsmethoden, Springer Verlag 1969).

male NMRI-mice = test: acute toxicity (LD50) in mice after oral administration; type: in vivo, mouse (male NMRI); settings: comparison in words
Procedure: as §1

| Structure (SMILES) | LD50 at 168 h [1] | EC (125%) (isolated left atria) | minimal effective dose [2] | toxicity compared with known sparteine derivatives (male NMRI-mice) | effectiveness compared with the known tested sparteine compounds ([2]; conclusion in words from table 1) | effect after oral application, after a period of 3 hours ([2]; oral, after 3 hours, same conditions for known compounds) |
| --- | --- | --- | --- | --- | --- | --- |
| C1CCN2C[C@@H]3C[C@@H]([C@@H]([C@@H]4[C@@H]5C[C@@H](CN6CCCC[C@H]56)[C@@H]5CCCCN45)N4CCCC[C@@H]34)[C@H]2C1 [17S,17'S-bissparteine ditartrate] | > 1900 µmol/kg | 5 µM | 33 µmol/kg | – | – | – |
| C1CCN2C[C@@H]3C[C@@H]([C@@H]([C@@H]4[C@@H]5C[C@@H](CN6CCCC[C@H]56)[C@@H]5CCCCN45)N4CCCC[C@@H]34)[C@H]2C1 [17S,17'S-bissparteine] | – | – | – | less toxic | more effective than the known tested sparteine compounds | retains its good effect even after a period of 3 hours |
| CCCCCC1C2CC(CN3CCCCC23)C2CCCCN21 (stereo not drawn) [Pentyl sparteine tartrate] | 1800 µmol/kg | 9 µM | > 180 µmol/kg | – | – | – |
| C1CCN2C[C@@H]3C[C@@H](CN4CCCC[C@@H]34)[C@H]2C1 [Sparteine sulfate] | 540 µmol/kg | 34 µM | > 54 µmol/kg | – | – | – |

Reference: patent US4415577A, “Bis-sparteine derivatives and method of using same in therapy” (Kali-Chemie Pharma GmbH, priority 1980, dated 1983)
